Measurements from ChEMBL document CHEMBL1275576, “In vitro activity of tomopenem (CS-023/RO4908463) against anaerobic bacteria” (Antimicrob Agents Chemother, 2009).

Experiments:
Format in all cases: functional
[1] = tested on: Peptoniphilus asaccharolyticus; assay: Antimicrobial activity against Peptoniphilus asaccharolyticus WAL 3218 by agar dilution method in presence of 5% laked sheep blood
[2] = tested on: Bacteroides fragilis; assay: Antimicrobial activity against Bacteroides fragilis GAI 10150 by agar dilution method in presence of 5% laked sheep blood
[3] = tested on: Limosilactobacillus reuteri; assay: Antimicrobial activity against Lactobacillus reuteri JCM 1112 by agar dilution method in presence of 5% laked sheep blood
[4] = tested on: Bifidobacterium bifidum; assay: Antimicrobial activity against Bifidobacterium bifidum JCM 1255 by agar dilution method in presence of 5% laked sheep blood
[5] = tested on: Prevotella buccae; assay: Antimicrobial activity against Prevotella buccae ATCC 33574 by agar dilution method in presence of 5% laked sheep blood; settings: Segatella buccae
[6] = tested on: Gemella morbillorum; assay: Antimicrobial activity against Gemella morbillorum ATCC 27824 by agar dilution method in presence of 5% laked sheep blood
[7] = tested on: Porphyromonas gingivalis; assay: Antimicrobial activity against Porphyromonas gingivalis ATCC 33277 by agar dilution method in presence of 5% laked sheep blood
[8] = tested on: Capnocytophaga ochracea; assay: Antimicrobial activity against Capnocytophaga ochracea GAI 5586 by agar dilution method in presence of 5% laked sheep blood
[9] = tested on: Campylobacter gracilis; assay: Antimicrobial activity against Campylobacter gracilis JCM 8538 by agar dilution method in presence of 5% laked sheep blood
[10] = Antimicrobial activity against Veillonella dispar ATCC 17748 by agar dilution method in presence of 5% laked sheep blood
[11] = tested on: Streptococcus intermedius; assay: Antimicrobial activity against Streptococcus intermedius ATCC 27335 by agar dilution method in presence of 5% laked sheep blood
[12] = tested on: Bacteroides fragilis; assay: Antimicrobial activity against Bacteroides fragilis GAI 0558 by agar dilution method in presence of 5% laked sheep blood
[13] = tested on: Eggerthella lenta; assay: Antimicrobial activity against Eggerthella lenta ATCC 25559 by agar dilution method in presence of 5% laked sheep blood
[14] = tested on: Parvimonas micra; assay: Antimicrobial activity against Parvimonas micra VPI 5464-1 by agar dilution method in presence of 5% laked sheep blood
[15] = tested on: Bacteroides uniformis; assay: Antimicrobial activity against Bacteroides uniformis ATCC 8492 by agar dilution method in presence of 5% laked sheep blood
[16] = tested on: Peptoniphilus indolicus; assay: Antimicrobial activity against Peptoniphilus indolicus GAI 0915 by agar dilution method in presence of 5% laked sheep blood
[17] = tested on: Bacteroides thetaiotaomicron; assay: Antimicrobial activity against Bacteroides thetaiotaomicron ATCC 29741 by agar dilution method in presence of 5% laked sheep blood
[18] = tested on: Bifidobacterium breve; assay: Antimicrobial activity against Bifidobacterium breve ATCC 15700 by agar dilution method in presence of 5% laked sheep blood
[19] = tested on: Lactobacillus salivarius; assay: Antimicrobial activity against Lactobacillus salivarius subsp. salivarius JCM 1231 by agar dilution method in presence of 5% laked sheep blood; settings: Ligilactobacillus salivarius
[20] = Antimicrobial activity against Bifidobacterium adolescentis ATCC 15703 by agar dilution method in presence of 5% laked sheep blood
[21] = tested on: Bacteroides fragilis; assay: Antimicrobial activity against Bacteroides fragilis GAI 5562 by agar dilution method in presence of 5% laked sheep blood
[22] = tested on: Fusobacterium necrophorum; assay: Antimicrobial activity against Fusobacterium necrophorum ATCC 25286 by agar dilution method in presence of 5% laked sheep blood
[23] = tested on: Bifidobacterium pseudolongum; assay: Antimicrobial activity against Bifidobacterium pseudolongum ATCC 25526 by agar dilution method in presence of 5% laked sheep blood
[24] = tested on: Anaerococcus prevotii; assay: Antimicrobial activity against Anaerococcus prevotii ATCC 9321 by agar dilution method in presence of 5% laked sheep blood
[25] = tested on: Phocaeicola vulgatus; assay: Antimicrobial activity against Bacteroides vulgatus GAI 0673 by agar dilution method in presence of 5% laked sheep blood
[26] = Antimicrobial activity against Bifidobacterium longum subsp. longum ATCC 15707 by agar dilution method in presence of 5% laked sheep blood
[27] = tested on: Clostridioides difficile; assay: Antimicrobial activity against Clostridium difficile GAI 10029 by agar dilution method in presence of 5% laked sheep blood
[28] = tested on: Porphyromonas asaccharolytica; assay: Antimicrobial activity against Porphyromonas asaccharolyticus ATCC 25260 by agar dilution method in presence of 5% laked sheep blood; settings: DSM 20707
[29] = tested on: Bacteroides fragilis; assay: Antimicrobial activity against carbapenemase-producing Bacteroides fragilis GAI 30079 by agar dilution method in presence of 5% laked sheep blood
[30] = tested on: Streptococcus constellatus; assay: Antimicrobial activity against Streptococcus constellatus ATCC 27923 by agar dilution method in presence of 5% laked sheep blood
[31] = tested on: Bacteroides eggerthii DSM 20697; assay: Antimicrobial activity against Bacteroides eggerthii ATCC 27754 by agar dilution method in presence of 5% laked sheep blood
[32] = tested on: Limosilactobacillus fermentum; assay: Antimicrobial activity against Lactobacillus fermentum JCM 1173 by agar dilution method in presence of 5% laked sheep blood
[33] = tested on: Enterocloster clostridioformis; assay: Antimicrobial activity against Clostridium clostridioforme NCTC 11224 by agar dilution method in presence of 5% laked sheep blood
[34] = tested on: Atopobium parvulum; assay: Antimicrobial activity against Atopobium parvulum VPI 0546 by agar dilution method in presence of 5% laked sheep blood; settings: Lancefieldella parvula
[35] = tested on: Sutterella wadsworthensis; assay: Antimicrobial activity against Sutterella wadsworthensis ATCC 51579 by agar dilution method in presence of 5% laked sheep blood
[36] = tested on: Prevotella bivia; assay: Antimicrobial activity against Prevotella bivia ATCC 29303 by agar dilution method in presence of 5% laked sheep blood; settings: DSM 20514
[37] = tested on: Staphylococcus saccharolyticus; assay: Antimicrobial activity against Staphylococcus saccharolyticus ATCC 14953 by agar dilution method in presence of 5% laked sheep blood
[38] = tested on: Veillonella parvula; assay: Antimicrobial activity against Veillonella parvula ATCC 10790 by agar dilution method in presence of 5% laked sheep blood
[39] = tested on: Thomasclavelia ramosa; assay: Antimicrobial activity against Clostridium ramosum ATCC 25582 by agar dilution method in presence of 5% laked sheep blood
[40] = tested on: Bacteroides ovatus; assay: Antimicrobial activity against Bacteroides ovatus ATCC 8483 by agar dilution method in presence of 5% laked sheep blood
[41] = tested on: Lactiplantibacillus plantarum; assay: Antimicrobial activity against Lactobacillus plantarum JCM 1149 by agar dilution method in presence of 5% laked sheep blood
[42] = tested on: Schaalia odontolytica; assay: Antimicrobial activity against Actinomyces odontolyticus GAI 91002 by agar dilution method in presence of 5% laked sheep blood
[43] = tested on: Lactobacillus brevis; assay: Antimicrobial activity against Lactobacillus brevis subsp. brevis JCM 1059 by agar dilution method in presence of 5% laked sheep blood; settings: Levilactobacillus brevis
[44] = Antimicrobial activity against Finegoldia magna ATCC 29328 by agar dilution method in presence of 5% laked sheep blood
[45] = tested on: Prevotella oris; assay: Antimicrobial activity against Prevotella oris ATCC 33573 by agar dilution method in presence of 5% laked sheep blood; settings: Segatella oris
[46] = tested on: Paeniclostridium sordellii; assay: Antimicrobial activity against Clostridium sordellii ATCC 9714 by agar dilution method in presence of 5% laked sheep blood; settings: Paraclostridium sordellii

`CCC[C@@H]1C[C@@H](C(=O)N[C@@H]([C@H]2O[C@H](SC)[C@H](O)[C@@H](O)[C@H]2O)[C@H](C)Cl)N(C)C1` [CLINDAMYCIN] gave an MIC [1] of over 128 µg/mL, an MIC [2] of 0.5 µg/mL and an MIC [3] of at most 0.03 µg/mL. It also gave an MIC [4] of at most 0.03 µg/mL, an MIC [5] of at most 0.03 µg/mL and an MIC [6] of 0.06 µg/mL. For the same molecule, the MIC [7] was at most 0.03 µg/mL, the MIC [8] was at most 0.03 µg/mL and the MIC [9] was 0.125 µg/mL. The MIC [10] was at most 0.03 µg/mL, the MIC [11] was 0.25 µg/mL and the MIC [12] was 0.5 µg/mL. It also gave an MIC [13] of 0.25 µg/mL, an MIC [14] of 0.25 µg/mL and an MIC [15] of at most 0.03 µg/mL. The MIC [16] was 32 µg/mL, the MIC [17] was 4 µg/mL and the MIC [18] was at most 0.03 µg/mL. The MIC [19] was 0.06 µg/mL, the MIC [20] was at most 0.03 µg/mL and the MIC [21] was 0.5 µg/mL. The MIC [22] was at most 0.03 µg/mL, the MIC [23] was at most 0.03 µg/mL and the MIC [24] was 0.125 µg/mL. The MIC [25] was 0.06 µg/mL, the MIC [26] was at most 0.03 µg/mL and the MIC [27] was over 128 µg/mL. It also gave an MIC [28] of at most 0.03 µg/mL, an MIC [29] of over 128 µg/mL and an MIC [30] of 0.25 µg/mL. It also gave an MIC [31] of at most 0.03 µg/mL, an MIC [32] of at most 0.03 µg/mL and an MIC [33] of 0.25 µg/mL. The MIC [34] was 1 µg/mL, the MIC [35] was 16 µg/mL and the MIC [36] was at most 0.03 µg/mL. For the same molecule, the MIC [37] was 0.125 µg/mL, the MIC [38] was at most 0.03 µg/mL and the MIC [39] was 8 µg/mL. The MIC [40] was 0.5 µg/mL, the MIC [41] was 0.25 µg/mL and the MIC [42] was 0.25 µg/mL. It also gave an MIC [43] of at most 0.03 µg/mL, an MIC [44] of 2 µg/mL and an MIC [45] of at most 0.03 µg/mL. The MIC [46] was 1 µg/mL.

`CC(=N)N1CC[C@H](SC2=C(C(=O)O)N3C(=O)[C@H]([C@@H](C)O)[C@H]3C2)C1` showed an MIC [1] of 0.25 µg/mL, an MIC [2] of 8 µg/mL and an MIC [3] of 0.03 µg/mL. The MIC [4] was 0.06 µg/mL, the MIC [5] was 0.25 µg/mL and the MIC [6] was at most 0.015 µg/mL. The MIC [7] was 0.03 µg/mL, the MIC [8] was 0.125 µg/mL and the MIC [9] was 0.25 µg/mL. For the same molecule, the MIC [10] was 0.06 µg/mL, the MIC [11] was 0.25 µg/mL and the MIC [12] was 0.5 µg/mL. It also gave an MIC [13] of 2 µg/mL, an MIC [14] of 0.125 µg/mL and an MIC [15] of 0.25 µg/mL. The MIC [16] was 0.125 µg/mL, the MIC [17] was 0.5 µg/mL and the MIC [18] was 0.5 µg/mL. For the same molecule, the MIC [19] was 0.25 µg/mL, the MIC [20] was 0.125 µg/mL and the MIC [21] was 0.25 µg/mL. For the same molecule, the MIC [22] was 0.125 µg/mL, the MIC [23] was 0.25 µg/mL and the MIC [24] was 0.125 µg/mL. It also gave an MIC [25] of 0.125 µg/mL, an MIC [26] of 1 µg/mL and an MIC [27] of 4 µg/mL. For the same molecule, the MIC [28] was 0.03 µg/mL, the MIC [29] was over 128 µg/mL and the MIC [30] was 0.25 µg/mL. The MIC [31] was 0.25 µg/mL, the MIC [32] was 0.03 µg/mL and the MIC [33] was 0.25 µg/mL. It also gave an MIC [34] of 0.25 µg/mL, an MIC [35] of 0.5 µg/mL and an MIC [36] of 0.5 µg/mL. For the same molecule, the MIC [37] was 0.03 µg/mL, the MIC [38] was 0.125 µg/mL and the MIC [39] was 0.25 µg/mL. It also gave an MIC [40] of 0.5 µg/mL, an MIC [41] of 0.03 µg/mL and an MIC [42] of 0.5 µg/mL. For the same molecule, the MIC [43] was 0.03 µg/mL, the MIC [44] was 0.25 µg/mL and the MIC [45] was 0.06 µg/mL. It also gave an MIC [46] of 0.03 µg/mL.
